# Reference: patent US10618901B2 (GlaxoSmithKline Intellectual Property Development Limited, priority 2014, dated 2020)
# Target: T1, 6HIS-Tev-LRRK2 (1326-2527) (Homo sapiens, UniProt Q5S007)
# T1 construct: A LRRK2 cDNA encoding residues 1326-2527 was received from Dundee University; made in house; host or cells: Spodoptera frugiperda Sf9 (baculovirus, pFB-HTb)
# T1 sequence (Q5S007 1326-2527): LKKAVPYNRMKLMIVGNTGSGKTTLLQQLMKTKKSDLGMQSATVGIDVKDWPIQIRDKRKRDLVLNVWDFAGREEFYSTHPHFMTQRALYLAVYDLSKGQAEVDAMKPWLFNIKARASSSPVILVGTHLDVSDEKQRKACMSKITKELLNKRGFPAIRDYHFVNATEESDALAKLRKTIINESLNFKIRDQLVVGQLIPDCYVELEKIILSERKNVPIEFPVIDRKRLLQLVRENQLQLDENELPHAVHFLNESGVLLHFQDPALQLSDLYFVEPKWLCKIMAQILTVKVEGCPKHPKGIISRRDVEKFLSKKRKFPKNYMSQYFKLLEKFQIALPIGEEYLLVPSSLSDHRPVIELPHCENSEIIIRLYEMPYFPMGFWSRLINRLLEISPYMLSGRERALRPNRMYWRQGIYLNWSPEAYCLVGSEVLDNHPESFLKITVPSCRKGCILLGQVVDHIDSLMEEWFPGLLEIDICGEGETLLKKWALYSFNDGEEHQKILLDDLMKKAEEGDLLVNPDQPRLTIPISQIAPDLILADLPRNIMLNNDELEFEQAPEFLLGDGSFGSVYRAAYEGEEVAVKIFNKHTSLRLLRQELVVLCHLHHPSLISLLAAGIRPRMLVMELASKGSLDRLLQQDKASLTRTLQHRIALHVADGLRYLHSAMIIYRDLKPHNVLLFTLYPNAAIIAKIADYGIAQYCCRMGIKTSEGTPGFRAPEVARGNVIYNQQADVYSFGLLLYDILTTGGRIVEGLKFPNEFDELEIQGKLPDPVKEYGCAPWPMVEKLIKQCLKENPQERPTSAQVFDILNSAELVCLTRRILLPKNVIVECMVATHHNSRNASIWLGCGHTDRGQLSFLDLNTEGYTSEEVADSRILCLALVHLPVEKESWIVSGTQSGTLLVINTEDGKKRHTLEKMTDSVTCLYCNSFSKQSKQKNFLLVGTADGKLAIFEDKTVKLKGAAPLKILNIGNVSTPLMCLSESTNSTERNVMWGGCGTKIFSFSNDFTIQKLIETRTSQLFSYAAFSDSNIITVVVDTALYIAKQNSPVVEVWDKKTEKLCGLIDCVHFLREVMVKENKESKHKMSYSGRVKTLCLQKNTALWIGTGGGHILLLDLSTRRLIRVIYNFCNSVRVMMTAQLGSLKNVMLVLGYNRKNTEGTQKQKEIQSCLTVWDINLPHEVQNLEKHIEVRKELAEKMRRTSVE
# Test: Recombinant LRRK2 enzyme peptide substrate TR-FRET assay
# Assay type: biochemical
# Conditions: 60 nM LRRK2 enzyme; 1 uM Biotin-longer LRRKtide; 10 uM ATP
# Method: A LRRK2 cDNA encoding residues 1326-2527 was received from Dundee University (described in M. Jaleel et al., 2007, Biochem J, 405: 407-417). This gene fragment was subcloned into pFB-HTb (Invitrogen) using BamHI and NotI restriction sites. The LRRK2 plasmid was recombined into the baculovirus genome according to the BAC-to-BAC protocol described by Invitrogen. Transfection into Spodoptera frugiperda (Sf9) insect cells was performed using Cellfectin (Invitrogen), according to the manufacturer's protocol to generate P1 and P2 baculovirus stocks.
# Sf9 cells were grown in HyClone SFX (Thermo Scientific) growth media at 27° C., 80 rpm in shake flask until of a sufficient volume to inoculate a bioreactor. The cells were grown in a 20 liter working volume Wave bioreactor (GE Healthcare) at 27° C., 50% dissolved oxygen and an agitation rate 22 rocks per minute, 10 degree rock angle, 200 ml/min air with a cell concentration of approximately 6×e6 cells/ml. The cells were infected with P2 Baculovirus at a multiplicity of infection (MOI) of 3. The cultivation was continued for a 48 hour expression phase. The infected cells were removed from the growth media by centrifugation at 2500 g using a Sorvall RC 3C Plus centrifuge at 2500 g for 20 minutes. The cell pellet was immediately frozen and subsequently supplied for purification.
# A 260 g pellet was allowed to thaw in a water bath at 27° C. with 800 ml lysis buffer/buffer A (50 mm Tris-HCl pH 8.5, 300 mM NaCl, 1 mm DTT, 10% glycerol, 1 ml/L calbiochem complete protease inhibitor cocktail and benzonase (50 ul/800 ml)) before being dounce homogenised on ice using 20 strokes per 100 ml. The suspension was packed in ice and sonicated at 50% amplitude for 3 min 10 sec on/off using a ¾″ probe. The suspension was then centrifuged at 100,000 g for 90 min, at 4° C.
# The lysate (700 ml) was decanted from the insoluble pellet and contacted for 3 h at 4 C with 10 ml His bind Ni NTA resin by end over end mixing. The resin was recovered by centrifugation, 3000 g, 5 min at 4 C, and packed in an XK16 column. The column was then washed with 10 column volumes buffer A, 10 column volumes buffer B (buffer A+1M NaCl) and 10 column volumes buffer C (buffer A+20 mM imidazole). The column was then eluted with 15 column volumes buffer D (buffer A+300 mM imidazole) collecting 2 ml fractions. All washes and elution were conducted at 4 ml/min.
# Fractions identified by SDS-PAGE as containing protein of interest were pooled and loaded directly onto a 320 ml SEC Superdex 200 pg column that was pre-equilibrated with buffer E (50 mM Tris-HCl pH 8.5, 300 mM NaCl, 10% glycerol, 1 mM DTT). The column was loaded and eluted with 1.2 column volumes buffer E at 2 ml/min collecting 2 ml fractions. Fractions identified by SDS-PAGE as containing protein of interest were tested for activity.
# Production of Biotin-Loner LRRKtide
# The peptide (biotin-[…]-OH) was assembled at a […] scale using FMOC solid phase peptide synthesis on an ACT 357 MPS automated peptide synthesizer. The resulting crude peptide was cleaved from the resin using a 95:2.5:2.5 mix of trifluoroacetic acid: triisopropylsilane: water. The crude cleaved peptide was purified by reverse phase HPLC, eluting with a 5-35% gradient of 0.1% trifluoroacetic acid/acetonitrile in 0.1% trifluoroacetic acid/water.
# Recombinant LRRK2 Enzyme Peptide Substrate TR-FRET Assay
# This assay for LRRK2 inhibition is based on the detection of phosphorylation of the peptide ‘longer LRRKtide’ (biotin-[…]-OH) using a time resolved-fluorescence resonance energy transfer (TR-FRET) assay. It uses an antibody labelled europium chelate donor, W-1024 (Eu) and Streptavidin-Surelight APC acceptor (APC). When in close proximity, the excitation of Eu at 330 nm leads to energy transfer to APC with emission of light at 665 nm,
# Assay Protocol • 1. A 10 mM test compound was dissolved in 100% DMSO and serially diluted 1 in 4. […]
row,Compound,recombinant LRRK2 enzyme peptide substrate TR-FRET assay (pIC50)
1,"trans-2-(5-chloro-4-((4-ethoxy-7H-pyrrolo-[2,3-d]-pyrimidin-2-yl)amino)-1H-pyrazol-1-yl)-cyclopentanol [Example E37]",9
2,"trans-2-(5-chloro-4-((4-ethoxy-7H-pyrrolo-[2,3-d]-pyrimidin-2-yl)amino)-1H-pyrazol-1-yl)cyclopentanol [Example E38]",9.1
3,"cis-3-(4-((4-ethoxy-7H-pyrrolo[2,3-d]pyrimidin-2-yl)amino)-5-methyl-1H-pyrazol-1-yl)cyclopentanol [Example E56]",8.1
4,"trans-2-(4-((4-ethoxy-7H-pyrrolo-[2,3-d]pyrimidin-2-yl)amino)-5-methyl-1H-pyrazol-1-yl)-cyclopentanol [Example E40]",8.3
5,"trans-2-(4-((4-ethoxy-7H-pyrrolo-[2,3-d]pyrimidin-2-yl)amino)-5-methyl-1H-pyrazol-1-yl)-cyclopentanol [Example E41]",8

# Same assay, conditions: 60 nM LRRK2 enzyme; 1 uM Biotin-longer LRRKtide; 10 uM ATP; read-out: recombinant LRRK2 enzyme peptide substrate TR-FRET assay (pIC50) (converted)
row,Compound,IC50
1,"CCOc1nc(Nc2cnn(C3CCOCC3)c2C2CC2)nc2[nH]ccc12 [Example E44, N-(5-cyclopropyl-1-(tetrahydro-2H-pyran-4-yl)-1H-pyrazol-4-yl)-4-ethoxy-7H-pyrrolo-[2,3-d]pyrimidin-2-amine]",7.94 nM
2,"CCOc1nc(Nc2cnn(C3CC(O)C3)c2C)nc2[nH]ccc12 (stereo not shown) [Example E52, 3-(4-((4-ethoxy-7H-pyrrolo-[2,3-d]-pyrimidin-2-yl)-amino)-5-methyl-1H-pyrazol-1-yl)cyclo-butanol]",7.94 nM
3,"CCOc1nc(Nc2cnn(CCN3CCOCC3)c2C)nc2[nH]ccc12 [Example E45, 4-ethoxy-N-(5-methyl-1-(2-morpholinoethyl)-1H-pyrazol-4-yl)-7H-pyrrolo-[2,3-d]pyrimidin-2-amine]",10 nM
4,"CCOc1nc(Nc2cnn(CC(C)(C)O)c2C)nc2[nH]ccc12 [Example E3, 1-(4-((4-ethoxy-7H-pyrrolo-[2,3-d]pyrimidin-2-yl)amino)-5-methyl-1H-pyrazol-1-yl)-2-methylpropan-2-ol]",12.6 nM
5,"CCOc1nc(Nc2cnn(C3CCN(C)C3)c2C)nc2[nH]ccc12 (single isomer, unassigned) [Example E14, 4-ethoxy-N-(5-methyl-1-(1-methylpyrrolidin-3-yl)-1H-pyrazol-4-yl)-7H-pyrrolo-[2,3-d]-pyrimidin-2-amine]",12.6 nM

# Same assay, conditions: 60 nM LRRK2 enzyme; 10 uM ATP; read-out: pIC50 in the recombinant LRRK2 enzyme peptide substrate TR-FRET assay (converted)
row,Compound,IC50
1,"CCOc1nc(Nc2cnn(CCOC)c2Cl)nc2[nH]ccc12 [Example E21, N-(5-chloro-1-(2-methoxyethyl)-1H-pyrazol-4-yl)-4-ethoxy-7H-pyrrolo-[2,3-d]-pyrimidin-2-amine]",≤ 100 nM
2,"CCOc1nc(Nc2cnn(C3CCCC3(C)O)c2C)nc2[nH]ccc12 (racemic) [Example E70, Trans-2-(4-((4-ethoxy-7H-pyrrolo-[2,3-d]pyrimidin-2-yl)amino)-5-methyl-1H-pyrazol-1-yl)-1-methylcyclopentanol]",≤ 100 nM
3,"CCOc1nc(Nc2cnn(C3CCN(C4COC4)C3)c2C)nc2[nH]ccc12 (single isomer, unassigned) [Example E67, 4-ethoxy-N-(5-methyl-1-(1-(oxetan-3-yl)-pyrrolidin-3-yl)-1H-pyrazol-4-yl)-7H-pyrrolo-[2,3-d]pyrimidin-2-amine]",≤ 100 nM
